The source made the active and inactive calls. No cut-off for these calls is given here.
Assays:
MDA-MB-231 [1] = test: Induction of apoptosis in human MDA-MB-231 cells assessed as late apoptotic cells at 0.4 uM after 48 hrs by Annexin-V/FITC/PI staining based flow cytometry (reference value: 1.50 %); type: functional
MDA-MB-231 [2] = test: Synergistic induction of apoptosis in human MDA-MB-231 cells assessed as necrotic cells at 0.4 uM after 48 hrs in presence of DMXAA by Annexin-V/FITC/PI staining based flow cytometry (reference value: 0.00 %); type: functional
MDA-MB-231 [3] = test: Synergistic induction of apoptosis in human MDA-MB-231 cells assessed as late apoptotic cells at 0.2 uM after 48 hrs in presence of DMXAA by Annexin-V/FITC/PI staining based flow cytometry (reference value: 0.00 %); type: functional
MDA-MB-231 [4] = test: Synergistic antiproliferative activity against human MDA-MB-231 cells at compound to DMXAA mol ratio of 1:1 after 48 hrs by CCK8 assay relative to compound alone; type: functional
MDA-MB-231 [5] = test: Synergistic induction of apoptosis in human MDA-MB-231 cells assessed as early apoptotic cells at 0.4 uM after 48 hrs in presence of DMXAA by Annexin-V/FITC/PI staining based flow cytometry (reference value: 0.05 %); type: functional
MDA-MB-231 [6] = test: Synergistic induction of apoptosis in human MDA-MB-231 cells assessed as necrotic cells at 0.8 uM after 48 hrs in presence of DMXAA by Annexin-V/FITC/PI staining based flow cytometry (reference value: 0.00 %); type: functional
K562 = test: Synergistic antiproliferative activity against human K562 cells at compound to DMXAA mol ratio of 1:1 after 48 hrs by CCK8 assay; type: functional, cell-based; conditions: K562, 48 h
MDA-MB-231 [7] = test: Synergistic decrease in MDM2 level in human MDA-MB-231 cells at 0.1 to 0.5 uM after 48 hrs in presence of DMXAA by Western blot analysis; type: functional, cell-based
MDA-MB-231 [8] = test: Decrease in caspase-9 level in human MDA-MB-231 cells at 0.2 to 0.8 uM after 48 hrs by Western blot analysis; type: functional, cell-based
MDA-MB-231 [9] = test: Synergistic induction of apoptosis in human MDA-MB-231 cells assessed as viable cells at 0.2 uM after 48 hrs in presence of DMXAA by Annexin-V/FITC/PI staining based flow cytometry (reference value: 99.95 %); type: functional; conditions: MDA-MB-231, 48 h, read-out: Activity
MDA-MB-231 [10] = test: Induction of apoptosis in human MDA-MB-231 cells assessed as early apoptotic cells at 0.8 uM after 48 hrs by Annexin-V/FITC/PI staining based flow cytometry (reference value: […] %); type: functional
MDA-MB-231 [11] = test: Synergistic induction of apoptosis in human MDA-MB-231 cells assessed as early apoptotic cells at 0.8 uM after 48 hrs in presence of DMXAA by Annexin-V/FITC/PI staining based flow cytometry (reference value: 0.05 %); type: functional
MCF7 = test: Antiproliferative activity against human MCF7 cells after 48 hrs by CCK8 assay; type: functional, cell-based; conditions: MCF7, 48 h
HepG2 = test: Antiproliferative activity against human HepG2 cells after 48 hrs by CCK8 assay; type: functional, cell-based; conditions: HepG2, 48 h
MDA-MB-231 [12] = test: Synergistic induction of apoptosis in human MDA-MB-231 cells assessed as viable cells at 0.8 uM after 48 hrs in presence of DMXAA by Annexin-V/FITC/PI staining based flow cytometry (reference value: 99.95 %); type: functional; conditions: MDA-MB-231, 48 h, read-out: Activity
MDA-MB-231 [13] = test: Induction of apoptosis in human MDA-MB-231 cells assessed as late apoptotic cells at 0.2 uM after 48 hrs by Annexin-V/FITC/PI staining based flow cytometry (reference value: 1.50 %); type: functional
MDA-MB-231 [14] = test: Synergistic increase in p53 level in human MDA-MB-231 cells at 0.1 to 0.5 uM after 48 hrs in presence of DMXAA by Western blot analysis; type: functional, cell-based
MDA-MB-231 [15] = test: Cell cycle arrest in human MDA-MB-231 cells assessed as increase in accumulation at G2/M phase at 0.8 uM after 48 hrs by propidium iodide staining based flow cytometric method relative to control; type: functional
MDA-MB-231 [16] = test: Induction of apoptosis in human MDA-MB-231 cells assessed as late apoptotic cells at 0.8 uM after 48 hrs by Annexin-V/FITC/PI staining based flow cytometry (reference value: 1.50 %); type: functional

`O=c1c2cc(Br)ccc2oc2cc(O)cc(O)c12` gave an Activity (MDA-MB-231 [1]) of 11.53%, an Activity (MDA-MB-231 [2]) of 22.27% and an Activity (MDA-MB-231 [3]) of 10.2%. The “fold change (FC)” value (MDA-MB-231 [4]) was 10, the Activity (MDA-MB-231 [5]) was 4.7% and the Activity (MDA-MB-231 [6]) was 17.47%. For the same molecule, the IC50 (K562) was 10.2 µM, the Activity (MDA-MB-231 [7]) was “Active” and the Activity (MDA-MB-231 [8]) was “Active”. For the same molecule, the viability at 0.2 µM (MDA-MB-231 [9]) was 48.6%, the Activity (MDA-MB-231 [10]) was 2.21% and the Activity (MDA-MB-231 [11]) was 6.81%. For the same molecule, the IC50 (MCF7) was 3.4 µM, the IC50 (HepG2) was 9.2 µM and the viability at 0.8 µM (MDA-MB-231 [12]) was 41.1%. The Activity (MDA-MB-231 [13]) was 5.35%, the Activity (MDA-MB-231 [14]) was “Active” and the Activity (MDA-MB-231 [15]) was 21.8%. The Activity (MDA-MB-231 [16]) was 13.71%.
